This is an account of results in paper PMC11022538, “Antibacterial insights into alternariol and its derivative alternariol monomethyl ether produced by a marine fungus” (Applied and Environmental Microbiology, 2024).

What all share (test): plasmid pCT74 unwinding, agarose gel
Holding throughout (assay type): biochemical
Settings in all cases: AOH 4 µg/mL (Fig 6; 1 µg in a 20 µL reaction), 5 min pre-incubation, 37°C, Mg2+; qualitative inhibition; no ATP listed

The target in one test is T1, Topc (Staphylococcus aureus, UniProt P0A0K8+P20831).
T1 construct: gene gyrA; Top1 and Top2 combined; each in pET28a, His-tagged, E. coli BL21(DE3)

Another test concerns the target T2, Top3 (Staphylococcus aureus, UniProt Q5HGI2).
T2 construct: gene topA; full gene in pET28a, His-tagged, E. coli BL21(DE3), Ni column; tag kept

The next test has as its target T3, Top4 (Staphylococcus aureus, UniProt Q99S17).
T3 construct: gene topB; full gene in pET28a, His-tagged, E. coli BL21(DE3), Ni column; tag kept

The next test concerns the target T4, Top1 (Staphylococcus aureus, UniProt P20831).
T4 construct: gene gyrA; full gene in pET28a, His-tagged, E. coli BL21(DE3), Ni column; tag kept

T2 sequence (Q5HGI2 whole entry): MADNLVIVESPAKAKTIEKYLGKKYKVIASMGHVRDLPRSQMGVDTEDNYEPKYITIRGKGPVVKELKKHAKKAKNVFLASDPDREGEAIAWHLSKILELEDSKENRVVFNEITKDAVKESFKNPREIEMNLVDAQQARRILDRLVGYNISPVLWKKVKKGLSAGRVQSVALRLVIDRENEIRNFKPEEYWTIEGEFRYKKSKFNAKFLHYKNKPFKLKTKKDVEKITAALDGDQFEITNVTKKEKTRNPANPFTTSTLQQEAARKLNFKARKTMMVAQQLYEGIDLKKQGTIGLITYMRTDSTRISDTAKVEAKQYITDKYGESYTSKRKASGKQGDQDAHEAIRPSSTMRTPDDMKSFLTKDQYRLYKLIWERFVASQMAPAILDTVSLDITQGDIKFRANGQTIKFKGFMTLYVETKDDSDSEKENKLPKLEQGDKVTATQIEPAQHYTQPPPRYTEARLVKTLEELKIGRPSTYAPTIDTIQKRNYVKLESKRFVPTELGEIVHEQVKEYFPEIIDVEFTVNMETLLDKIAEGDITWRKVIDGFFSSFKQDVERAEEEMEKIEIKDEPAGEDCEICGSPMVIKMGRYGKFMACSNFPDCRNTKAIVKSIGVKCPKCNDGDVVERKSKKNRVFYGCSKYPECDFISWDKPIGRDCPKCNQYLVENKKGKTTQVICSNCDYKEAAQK
T1 sequence (P20831 whole entry): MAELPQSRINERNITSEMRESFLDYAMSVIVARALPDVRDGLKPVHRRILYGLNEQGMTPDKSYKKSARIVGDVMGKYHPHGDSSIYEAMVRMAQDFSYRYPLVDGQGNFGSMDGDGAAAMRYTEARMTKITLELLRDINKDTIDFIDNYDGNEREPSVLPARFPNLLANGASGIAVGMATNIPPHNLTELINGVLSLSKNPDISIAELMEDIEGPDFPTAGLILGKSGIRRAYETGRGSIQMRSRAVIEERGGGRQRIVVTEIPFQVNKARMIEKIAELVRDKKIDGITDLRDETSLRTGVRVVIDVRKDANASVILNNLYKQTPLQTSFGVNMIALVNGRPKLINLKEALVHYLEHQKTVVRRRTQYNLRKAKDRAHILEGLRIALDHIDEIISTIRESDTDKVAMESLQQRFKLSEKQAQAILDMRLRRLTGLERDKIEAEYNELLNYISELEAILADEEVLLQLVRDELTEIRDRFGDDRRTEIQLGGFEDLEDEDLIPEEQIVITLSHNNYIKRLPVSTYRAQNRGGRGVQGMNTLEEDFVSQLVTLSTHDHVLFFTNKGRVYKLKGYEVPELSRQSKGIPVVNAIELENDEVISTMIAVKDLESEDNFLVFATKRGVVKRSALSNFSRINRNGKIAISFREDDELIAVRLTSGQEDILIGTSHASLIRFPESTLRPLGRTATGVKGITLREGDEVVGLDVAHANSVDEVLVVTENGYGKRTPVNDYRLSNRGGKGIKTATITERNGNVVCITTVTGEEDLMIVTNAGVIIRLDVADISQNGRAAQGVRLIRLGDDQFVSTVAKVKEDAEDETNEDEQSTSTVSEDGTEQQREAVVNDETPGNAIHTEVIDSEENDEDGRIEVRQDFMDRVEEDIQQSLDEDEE
T1 sequence (P0A0K8 2-644): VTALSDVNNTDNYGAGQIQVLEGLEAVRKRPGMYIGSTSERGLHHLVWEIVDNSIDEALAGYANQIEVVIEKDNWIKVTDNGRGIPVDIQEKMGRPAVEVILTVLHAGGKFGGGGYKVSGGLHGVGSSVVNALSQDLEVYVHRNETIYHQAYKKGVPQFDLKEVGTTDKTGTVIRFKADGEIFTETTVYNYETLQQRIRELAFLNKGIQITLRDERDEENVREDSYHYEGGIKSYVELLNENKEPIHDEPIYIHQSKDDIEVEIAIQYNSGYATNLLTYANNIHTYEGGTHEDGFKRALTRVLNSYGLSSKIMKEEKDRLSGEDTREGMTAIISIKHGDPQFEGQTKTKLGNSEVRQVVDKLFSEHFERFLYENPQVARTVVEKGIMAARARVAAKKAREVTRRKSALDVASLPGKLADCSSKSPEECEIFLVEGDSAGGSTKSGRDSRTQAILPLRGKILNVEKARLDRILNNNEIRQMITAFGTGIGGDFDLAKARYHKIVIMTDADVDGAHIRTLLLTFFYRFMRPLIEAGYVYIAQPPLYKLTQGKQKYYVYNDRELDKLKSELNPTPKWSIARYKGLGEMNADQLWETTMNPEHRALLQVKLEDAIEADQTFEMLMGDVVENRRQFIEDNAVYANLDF
T4 sequence (P20831 whole entry): as the sequence (P20831 whole entry) above
T3 sequence (Q99S17 whole entry): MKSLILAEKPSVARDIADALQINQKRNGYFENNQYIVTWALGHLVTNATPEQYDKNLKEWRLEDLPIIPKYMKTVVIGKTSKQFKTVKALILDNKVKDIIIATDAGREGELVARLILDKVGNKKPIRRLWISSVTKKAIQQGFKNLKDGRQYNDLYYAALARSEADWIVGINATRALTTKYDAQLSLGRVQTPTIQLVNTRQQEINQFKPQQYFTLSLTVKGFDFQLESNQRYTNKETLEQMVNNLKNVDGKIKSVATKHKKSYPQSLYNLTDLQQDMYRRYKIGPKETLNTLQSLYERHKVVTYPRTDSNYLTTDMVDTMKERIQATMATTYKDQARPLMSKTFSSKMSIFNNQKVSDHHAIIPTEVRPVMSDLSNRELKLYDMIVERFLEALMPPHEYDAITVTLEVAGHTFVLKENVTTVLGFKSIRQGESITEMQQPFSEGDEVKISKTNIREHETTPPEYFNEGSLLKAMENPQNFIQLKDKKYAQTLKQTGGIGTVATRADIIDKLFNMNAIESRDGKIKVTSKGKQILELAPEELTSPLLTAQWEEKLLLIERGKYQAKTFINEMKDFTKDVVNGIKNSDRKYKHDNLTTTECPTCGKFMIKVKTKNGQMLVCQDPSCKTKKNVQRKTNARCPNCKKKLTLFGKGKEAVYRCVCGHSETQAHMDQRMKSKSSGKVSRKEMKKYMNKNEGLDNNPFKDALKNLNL

`Cc1cc(O)cc2oc(=O)c3c(O)cc(O)cc3c12` [compound 1, alternariol]: the “plasmid pCT74 unwinding, agarose gel” value at Topc, at Top3, on Top4 and at Top1 was “AOH effectively blocked the unwinding activities of the above four topoisomerases” throughout.
